# In patent US10561653B2 (NOVARTIS AG, priority 2015, dated 2020):
# Assays:
# [1] = tested on: freshly resected NSCLC tumors (human lung tumour explants); experiment: ex vivo human lung tumour explants: IFNg secretion (IFN-γ ELISA) as measure of T cell (TIL) reactivity; format: cell-based; settings: for secretion of IFNg of tumor cells: NSCLC tumors from Hospital Clínico in Barcelona; for interferon gamma secretion from lung tumor cells stimulated with IL-2: FIG. 3
# Description: (§1) All experiments were carried out in accordance with guidelines set out by the Animal Experimental Ethics Committee. […] Vehicle consisted of 0.1% Tween 80 and 0.5% sodium carboxymethylcellulose (NaCMC) in water. Mice were euthanized at day 15, lungs harvested and tumor nodules counted under dissecting microscope. […] Freshly resected NSCLC tumors were obtained through the Tissue Core at Moffitt Cancer Center. The tumor was disaggregated for 2 hours in a Collagenase/DNase solution in the presence of complete protease inhibitors (Roche). Total cells (Tu) were counted. […] IL-2 has been used in some experiments in order to stimulate the IFN-γ production in these very resistant tumor cells. […] IFNg (IFN-γ ELISA R&D Systems) was determinated as a measure of T cell reactivity to autologous tumor cells. […] The compounds A and B were tested using similar experimental conditions, with the exception that the freshly resected NSCLC tumors were obtained from the Hospital Clínico in Barcelona. […] FIG. 8 a-g show the results obtained in each case. […] This is considered a clear signal of immune stimulation of the infiltrating lymphocytes presents in the tumors. […] 4. […] A compound of Formula I will be administered orally to the patient twice daily, fasting, at a dose of 80 mg, 160 mg, 320 mg or 640 mg throughout a cycle of 28 days. An anti-PD-1 antibody will be administered at a dose of about 300 mg or about 400 mg once every 3 week or once every 4 weeks. The anti-PD-1 antibody will be administered via IV infusion over a period of 30 minutes to 2 h. The compound of Formula I will be administered fasting immediately prior to the infusion with the anti-PD-1 antibody. In order to determine efficacy, baseline evaluations will be performed as closely as possible to the beginning of treatment and never more than 4 weeks before the beginning of the treatment. In addition to a baseline scan, confirmatory scans will be obtained 4-6 weeks following initial documentation of objective response. Response and progression will be evaluated in this study using the new international criteria proposed by the revised Response Evaluation Criteria in Solid Tumors (RECIST) guideline (version 1.1; Eisenhauer E A, Therasse P, Bogaerts J, et al. New response evaluation criteria in solid tumours: revised RECIST guideline (version 1.1). Eur J Cancer 2009; 45:228-47). Changes in the largest diameter (unidimensional measurement) of the tumor lesions and the shortest diameter in the case of malignant lymph nodes are used (Schwartz L H, Bogaerts J, Ford R, et al. Evaluation of lymph nodes with RECIST 1.1. Eur J Cancer 2009; 45:261-7). All The same method of assessment and the same technique will be used to characterize each identified and reported lesion at baseline and during follow-up. Imaging-based evaluation such as Chest x-ray, conventional CT and MRI will be used.
# [2] = tested on: MCA205 tumor cells; experiment: anti-tumor activity in syngeneic mice injected intravenously with MCA205 tumor cells (lung nodules); format: in vivo, C57Bl/6 mice; settings: for number of lung nodules: oral, 30 mg/Kg/day, similar conditions, University of Barcelona, FIGS. 1b and 1c
# Description: (§2) (mean lung nodules of 9-10 mice/group±standard errors are shown; *: P<0.05 by Student T test).
# (§3) FIGS. 1b and 1c show the anti-tumoral activity of orally administered Compound A and Compound B in two syngeneic mouse models of cancer. (mean lung nodules of 9-10 mice/group±standard errors are shown; *: P<0.05 by Student T test).
# (§4) All experiments were carried out in accordance with guidelines set out by the Animal Experimental Ethics Committee. […] Vehicle consisted of 0.1% Tween 80 and 0.5% sodium carboxymethylcellulose (NaCMC) in water. Mice were euthanized at day 15, lungs harvested and tumor nodules counted under dissecting microscope. […] Freshly resected NSCLC tumors were obtained through the Tissue Core at Moffitt Cancer Center. The tumor was disaggregated for 2 hours in a Collagenase/DNase solution in the presence of complete protease inhibitors (Roche). Total cells (Tu) were counted. […] IL-2 has been used in some experiments in order to stimulate the IFN-γ production in these very resistant tumor cells. […] IFNg (IFN-γ ELISA R&D Systems) was determinated as a measure of T cell reactivity to autologous tumor cells. […] The compounds A and B were tested using similar experimental conditions, with the exception that the freshly resected NSCLC tumors were obtained from the Hospital Clínico in Barcelona. […] FIG. 8 a-g show the results obtained in each case. […] This is considered a clear signal of immune stimulation of the infiltrating lymphocytes presents in the tumors. […] 4. […] A compound of Formula I will be administered orally to the patient twice daily, fasting, at a dose of 80 mg, 160 mg, 320 mg or 640 mg throughout a cycle of 28 days. […] Response and progression will be evaluated in this study using the new international criteria proposed by the revised Response Evaluation Criteria in Solid Tumors (RECIST) guideline (version 1.1; Eisenhauer E A, Therasse P, Bogaerts J, et al. New response evaluation criteria in solid tumours: revised RECIST guideline (version 1.1). Eur J Cancer 2009; 45:228-47). […]
# [3] = tested on: B16-CD73+ tumor cells; experiment: anti-tumor activity in syngeneic mice injected intravenously with B16-CD73+ tumor cells (lung nodules); format: in vivo, C57Bl/6 mice; settings: for number of lung nodules: oral, 30 mg/Kg/day, similar conditions, University of Barcelona, FIGS. 1b and 1c
# Description: as §2, §3, §4
# [4] = tested on: resistant human lung tumor explants; experiment: Bioplex assay of interleukins secretion in supernatants of resistant human lung tumor explants; format: cell-based
# Description: as §1
# [5] = toxicity profile in different animal models; format: in vivo; settings: in comparison with classical chemotherapy and other adenosine receptor antagonists
# [6] = compound alone, 1 μM, FIGS. 4-7 (IL-2 stimulated)
# [7] = in combination with an anti-PD-L1 or an anti-PD-1 antibody, FIGS. 4-7
# [8] = compound alone, supernatants from ex vivo experiments, FIG. 8
smiles,measurement,setting,value
"Nc1nc(-n2cccn2)nc(-n2cccn2)c1Cl [Compound A, 5-chloro-2,6-di-(1H-pyrazol-1-yl)pyrimidin-4-amine, reference compound]",secretion of IFNg of tumor cells,[1]; [6],not able to increase the secretion of IFNg
same,secretion of IFNg of tumor cells,[1]; [7],not able to increase the secretion of IFNg
same,number of lung nodules,[2],no significant reduction
same,number of lung nodules,[3],no significant reduction
"N#Cc1c(N)nc(-n2cccn2)nc1-n1cccn1 [Compound B, 4-amino-2,6-di-(1H-pyrazol-1-yl)pyrimidine-5-carbonitrile, reference compound]",secretion of IFNg of tumor cells,[1]; [6],not able to increase the secretion of IFNg
same,secretion of IFNg of tumor cells,[1]; [7],not able to increase the secretion of IFNg
same,number of lung nodules,[2],no significant reduction
same,number of lung nodules,[3],no significant reduction
"Nc1nc(-n2cccn2)nc(-n2cccn2)c1Br [Compound of formula (I), 5-bromo-2,6-di-(1H-pyrazol-1-yl)pyrimidin-4-amine]",secretion of IL5 (Interleukin 5) to the medium,[4]; [8],significantly increase the secretion
same,secretion of IL10 (Interleukin 10) to the medium,[4]; [8],significantly increase the secretion
same,secretion of IL13 (Interleukin 13) to the medium,[4]; [8],significantly increase the secretion
same,secretion of IL17 (Interleukin 17) to the medium,[4]; [8],significantly increase the secretion
same,secretion of ILib (Interleukin 1b) to the medium,[4]; [8],significantly increase the secretion
same,secretion of MIP1b to the medium,[4]; [8],significantly increase the secretion
same,secretion of tumor necrosis factor α (TNFα) to the medium,[4]; [8],significantly increase the secretion
same,secretion of different interleukins,[4]; in combination with either an anti PDL-1 or an anti-PD-1 antibody,increased the secretion of different interleukins of these tumors synergistically
same,TIL function (IFNg concentration),"[1]; 1 μM in combination with anti-PD-L1 antibody, other tumors",synergistically capable of restoring TIL function
same,TIL function (IFNg concentration),"[1]; 1 μM in combination with anti-PD-L1 antibody, some of the samples",improved TIL function (as determined by measuring IFNg concentration) in additive way
same,interferon gamma secretion from lung tumor cells stimulated with IL-2,[1]; compound alone,significantly increased
same,interferon gamma secretion from lung tumor cells stimulated with IL-2,"[1]; in combination with anti-PD-1 antibody, compared with compound alone",more pronounced
same,interferon gamma secretion of non-stimulated lung tumor cells,"[1]; in combination with anti-PD-L1 antibody, FIG. 2",significantly increase
same,TIL function (IFNg concentration),"[1]; single agent, other tumors, compound 1 μM, antibody 10 mg/ml",had no effect on TIL function
same,TIL reactivity (IFNg concentration),"[1]; single agent, some of the samples, 200,000 cells/well, 3 days, compound 1 μM, antibody 10 mg/ml",partially restored TIL reactivity
same,tumor burden (lung nodule and lung metastasis),"[2]; 2×10^5 MCA205 cells i.v., 30 mg/kg/day oral gavage daily for 7 days vs vehicle, nodules counted day 15, FIG. 1a",significantly reduced tumor burden
same,toxicity profile,[5],low toxicity profile
same,tumor burden (lung nodule and lung metastasis),"[3]; 3×10^5 B16-CD73+ cells i.v., 15 mg/kg/day oral gavage daily for 15 days vs vehicle, nodules counted day 15, FIG. 1a",significantly reduced tumor burden
